According to US8716293B2, “Macrocyclic integrase inhibitors” (Janssen R&D Ireland, priority 2010, dated 2014):

Experiments:
HIV-1 LAI (IIIB) = test: antiviral assay in the presence of 50% human serum; assay type: cell-based; details: MT-4-LTR-EGFP cells, 4 days, resazurin cell viability
Procedure: For the antiviral assay in the presence of 50% human serum, MT-4-LTR-EGFP cells were infected with HIV-1 LAI (IIIB) at a MOI of 0.001 to 0.01 CCID50/cell in RPMI1640 medium. Following 1 h of incubation, cells were washed and plated into a 96-well plate containing serial dilutions of test compound in the presence of 10% fetal calf serum or 50% human serum. After 4 days of incubation, the EC50 in the presence of 50% human serum (EC50/HS) was determined by a cell viability assay using resazurin (as described by Fields, R. D., and M. V. Lancaster (1993) Am. Biotechnol. Lab. 11:48-50).

[1] = pharmacokinetic evaluation in the rat; assay type: in vivo, male Sprague-Dawley rats; details: intravenous bolus 2 mg/kg; for clearance / half-life / Vd: male, Sprague-Dawley, plasma, iv; for clearance / CLp: plasma clearance; for clearance: read-out: CLp; for half-life / t1/2: terminal phase elimination half-life; for Vd: read-out: Vss
Procedure: For determining the pharmacokinetic properties in rat, each HIV integrase inhibitor was dissolved in PEG400/normal saline (70:30 (v/v)) at a nominal concentration of 1 mg/ml and administered (2 ml/kg) to male Sprague-Dawley rats (n=3 per test compound) as an intravenous bolus via a saphenous vein at a dose level of 2 mg/kg. […] Plasma was obtained by centrifugation and stored at −20° C. prior to analysis. Analysis was performed using liquid chromatography (LC) with tandem mass spectrometric detection (MS/MS) in positive ion mode. Each HIV integrase inhibitor was eluted from a reversed-phase column with a gradient of acetonitrile and water containing 0.1% (v/v) formic acid. At the time of analysis plasma samples (50 p. 1) were thawed and […] with 200 μl of acetonitrile containing 0.1% (v/v) formic acid and centrifuged. Aliquots of the supernatant (100 μl) were diluted with 200 μl of water containing 25% (v/v) methanol and 0.1% (v/v) formic acid and injected via an electrospray interface directly into the Mass Spectrometer. Calibration standards and quality controls were prepared in rat plasma at the same time as the samples and analyzed before and after the samples containing HIV integrase inhibitor. Non-compartmental pharmacokinetic analysis of the plasma concentration-time curves was performed using WinNonLin software to provide estimates of the plasma clearance (CLp), volume of distribution at steady-state (Vss) and terminal phase elimination half-life (t1/2).

[2] = system: cryopreserved hepatocytes from Sprague Dawley rats; test: metabolic stability in rat hepatocytes; assay type: in vitro ADME; details: 1 μM, percentage turnover; for Rat (% TO) 15 min: 15 min incubation; for Rat (% TO) 60 min: 60 min incubation
Procedure: (§1) For determining in vitro metabolic stability, cryopreserved hepatocytes from Sprague Dawley rats and of human subjects (pool of male and female) were obtained from an external supplier (Cellz Direct Inc., Paisly, UK). Tested compounds were dissolved in DMSO and this stock solution was used to spike rat and human hepatocyte cell cultures (10^6 cells/ml) at a final concentration of 1 μM (final percentage of DMSO was 0.02% (v/v)). Incubations were performed for up to 60 min at approximately 37° C. and terminated by the addition of two volumes of DMSO. Samples were then centrifuged and aliquots of the supernatant analyzed using liquid chromatography (LC) with electrospray mass spectrometric detection (MS/MS) to monitor the disappearance of parent compound by single reaction monitoring (SRM) and reverse-phase chromotatography with a gradient of acetonitrile and water containing 0.1% (v/v) formic acid. Based on peak area, the percentage of parent compound remaining after 15 and 60 min incubation was calculated and the results, expressed as percentage turnover (TO) relative to time zero controls.

HIV-1 SDM strain Q148R = test: cell-based HIV-1 replication assay in MT4-LTR-EGFP cells, Q148R mutant; details: fold change in activity against Q148R mutant compared to wild type HIV
From the text: (§2) MT4-LTR-enhanced green fluorescent protein (EGFP) cells were obtained by transfecting MT4 cells with a selectable construct encompassing the coding sequences for the HIV LTR as a promoter for the expression of EGFP and subsequent selection of permanently transfected cells. MT4-cytomegalovirus (CMV)-EGFP cells were obtained by selection for permanently transformed MT4 cells with a CMV-EGFP reporter gene. Cell lines were maintained in RPMI 1640 medium supplemented with 10% heat-inactivated fetal calf serum, 2 mM L-glutamine, 0.1% NaHCO3, and antibiotics (0.02% gentamicin and 0.8% G418) and incubated in a humidified incubator with a 5% CO2 atmosphere at 37° C.
(§3) N155H and Q148R mutant Integrase coding sequences were constructed in the pUC19-5′HXB2D vector (XbaI-SalI fragment of pHXB2D), containing the HIV-1 clone HXB2D IN coding sequence, by using a QuikChange site-directed mutagenesis kit (Stratagene, La Jolla, Calif.) and HPLC-purified primers (Genset Oligos, La Jolla, Calif.). Altered plasmid sequences were confirmed by dideoxyribose sequencing. For generation of site-directed mutant (SDM) virus stocks, MT4 cells were subcultured at a density of 250,000 cells/ml on the day before transfection. Cells were pelleted and resuspended in phosphate-buffered saline at a concentration of 3.1×10^6 cells/ml. A 0.8-ml portion ([…]) was used for each transfection. Transfections were performed with a Bio-Rad Gene Pulser (Bio-Rad, Hercules, Calif.) with 0.4-cm electrode cuvettes (Bio-Rad). Cells were electroporated with 10 μg of SalI-linearized pUC19-3′HXB2D (SalI-XbaI fragment of pHXB2D) and 5 μg of SalI-digested SDM at 250 μF and 300 V, followed by a 30-min incubation at room temperature. Ten ml of fresh culture medium was then added to the suspension of transfected cells, and incubation was performed at 37° C. in a humidified atmosphere with 5% CO2. Cell cultures were monitored for the appearance of cytopathic effect (CPE).
(§4) The inhibitory antiviral activity of different compounds was determined in a cell-based HIV-1 replication assay. MT4-LTR-EGFP cells (150,000 cells/ml) were infected with HIV-1 (IIIB or SDM strains Q148R, N155H, or G140S-Q148H; multiplicity of infection [MOI] of 0.0025) in the presence or absence of inhibitor. After 3 days of incubation, the inhibition of HIV replication was quantified by measuring EGFP fluorescence, and expressed as the compound concentration required for 50% inhibition of HIV-1 replication in cell culture (EC50).

HIV-1 (IIIB) = test: cell-based HIV-1 replication assay in MT4-LTR-EGFP cells, wild type; details: Human immunodeficiency virus 1, 72 h, 3 days, EGFP fluorescence
From the text: as §2
as §4, with “(EC50). The antiviral activities of the different compounds are reported in Table 4 and expressed as EC50 for the inhibition of wild type HIV (IIIB EC50) and as fold change in activity against the mutant strains (FC-Q148R, FC-N155H, FC-G140S-Q148H) compared to the activity against wild type HIV.” for “(EC50).”

[3] = system: HIV-1 SDM strain G140S-Q148H; test: cell-based HIV-1 replication assay in MT4-LTR-EGFP cells, G140S-Q148H mutant; details: fold change in activity against G140S-Q148H mutant compared to wild type HIV
From the text: as §2, §3, §4

HIV-1 SDM strain N155H = test: cell-based HIV-1 replication assay in MT4-LTR-EGFP cells, N155H mutant; details: fold change in activity against N155H mutant compared to wild type HIV
From the text: as §2, §3, §4

[4] = system: cryopreserved hepatocytes of human subjects; test: metabolic stability in human hepatocytes; assay type: in vitro ADME; details: 1 μM, percentage turnover; for Human (% TO) 15 min: 15 min incubation; for Human (% TO) 60 min: 60 min incubation
Procedure: as §1

[5] = Human immunodeficiency virus 1, IIIB, 96 h
[6] = 2 mg/kg, volume of distribution at steady-state

SMILES | EC50 (HIV-1 LAI (IIIB); [5]) | clearance ([1]; 2 mg/kg) | half-life ([1]; 2 mg/kg) | Vd [1, 6] | Rat (% TO) 15 min [2] | Rat (% TO) 60 min [2] | FC-Q148R (HIV-1 SDM strain Q148R) | EC50 (HIV-1 (IIIB)) | FC-G140S-Q148H [3] | FC-N155H (HIV-1 SDM strain N155H) | Human (% TO) 15 min [4] | Human (% TO) 60 min [4] | melting point | CLp ([1]; 2 mg/kg) | t1/2 ([1]; 2 mg/kg) | EC50 (HIV-1 LAI (IIIB)) | CLp [1] | t1/2 [1] | Vss ([1]; volume of distribution at steady-state)
CCN1C[C@H](C)n2c(c(O)c3c(=O)n(Cc4ccc(F)c(Cl)c4)nc(C(=O)NC)c32)C1=O [Compound 52r, reference compound] | 29 nM | 5 mL/min/kg | 1.6 h | 0.2 L/kg | 38 % TO | 76 % TO | 1.2 | 3.4 nM | 56.9 | 6.8 | 25 % TO | 44 % TO |  |  |  |  |  |  | 
CCN1C[C@H](C)n2c(c(O)c3c(=O)n4nc(c32)C(=O)NCCCCCOc2cc(F)c(F)cc2C4)C1=O [Compound 4] | 10 nM |  |  |  |  |  | 1.2 | 2.61 nM | 10.9 | 6.1 |  |  | 127.49 to 128.63 °C |  |  |  |  |  | 
CCN1C[C@H](C)n2c(c(O)c3c(=O)n(Cc4ccc(F)cc4)nc(N(C)S(C)(=O)=O)c32)C1=O [Compound 53r, reference compound] | 3 nM | 75 mL/min/kg | 1.7 h | 2.9 L/kg | 60 % TO | 89 % TO | 0.4 | 0.99 nM | 2.0 | 4.9 | 41 % TO | 84 % TO |  |  |  |  |  |  | 
CCN1C[C@H](C)n2c(c(O)c3c(=O)n4nc(c32)N(C)S(=O)(=O)CCCCOc2cc(F)ccc2C4)C1=O [Compound 1] | 3 nM | 8 mL/min/kg | 4.8 h | 0.8 L/kg | 30 % TO | 42 % TO | 0.7 | 0.92 nM | 2.6 | 3.2 | 16 % TO | 31 % TO | 298.6 to 300.6 °C |  |  |  |  |  | 
CCN1C[C@H](C)n2c(c(O)c3c(=O)n4nc(c32)C(=O)NCCCCCOc2cc(F)ccc2C4)C1=O [Compound 3] | 13 nM | 6 mL/min/kg | 4.4 h |  |  |  | 0.9 | 2.35 nM | 8.1 | 3.9 |  |  | 128.21 °C | 8 mL/min/kg | 7.8 h |  |  |  | 
CCN1C[C@@H](C)n2c(c(O)c3c(=O)n(Cc4ccc(F)c(Cl)c4)nc(N4CCN(C)S4(=O)=O)c32)C1=O [Compound 54r, reference compound] | 7 nM | 40 mL/min/kg | 1.5 h | 2.2 L/kg | 32 % TO | 46 % TO | 0.4 | 2.04 nM | 3.1 | 4.4 | 16 % TO | 23 % TO |  |  |  |  |  |  | 
CCN1C[C@H](C)n2c(c(O)c3c(=O)n4nc(c32)N2CCN(CC2)C(=O)CCCOc2cc(F)ccc2C4)C1=O [Compound 44] |  |  |  |  | 48 % TO | 70 % TO | 0.7 |  | 1.3 | 3.9 | 20 % TO | 43 % TO |  |  |  | 6 nM | 16 mL/min/kg | 5.2 h | 1.8 L/kg
